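Assay format: 96-well plates, 48-hour exposure. TGI: concentration producing complete growth inhibition.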
Assays:
Assay in all cases: inhibition of tumour cell growth, NCI panel, 48 h
MDA-MB-231 breast = tested on: MDA-MB-231 breast
CAKI-1 renal = tested on: CAKI-1 renal
TK-10 renal = tested on: TK-10 renal
HCT-116 colon = tested on: HCT-116 colon
IGROV1 ovarian = tested on: IGROV1 ovarian
MALME-3M melanoma = tested on: MALME-3M melanoma
HOP-92 NSCLC = tested on: HOP-92 NSCLC
UACC-62 melanoma = tested on: UACC-62 melanoma
SK-OV-3 ovarian = tested on: SK-OV-3 ovarian
UACC-257 melanoma = tested on: UACC-257 melanoma
NCI-H226 lung = tested on: NCI-H226 lung
MDA-MB-435 = tested on: MDA-MB-435
BT-549 breast = tested on: BT-549 breast
EKVX NSCLC = tested on: EKVX NSCLC
MDA-N = tested on: MDA-N
NCI/ADR-RES ovarian = tested on: NCI/ADR-RES ovarian
HCT-15 colon = tested on: HCT-15 colon
OVCAR-3 ovarian = tested on: OVCAR-3 ovarian
786-0 renal = tested on: 786-0 renal
UO-31 renal = tested on: UO-31 renal
SF-539 CNS = tested on: SF-539 CNS
SF-268 CNS = tested on: SF-268 CNS
MOLT-4 leukemia = tested on: MOLT-4 leukemia
A498 renal = tested on: A498 renal
U251 CNS = tested on: U251 CNS
HS 578T breast = tested on: HS 578T breast
SF-295 CNS = tested on: SF-295 CNS
NCI-H460 lung = tested on: NCI-H460 lung
M14 melanoma = tested on: M14 melanoma
RPMI-8226 leukemia = tested on: RPMI-8226 leukemia
HOP-62 NSCLC = tested on: HOP-62 NSCLC
HT29 colon = tested on: HT29 colon
SK-MEL-2 melanoma = tested on: SK-MEL-2 melanoma
A549 NSCLC = tested on: A549 NSCLC
OVCAR-4 ovarian = tested on: OVCAR-4 ovarian
HL-60(TB) leukemia = tested on: HL-60(TB) leukemia
SNB-19 CNS = tested on: SNB-19 CNS
SN12C renal = tested on: SN12C renal
LOX IMVI melanoma = tested on: LOX IMVI melanoma
NCI-H23 lung = tested on: NCI-H23 lung
CCRF-CEM leukemia = tested on: CCRF-CEM leukemia
SNB-75 CNS = tested on: SNB-75 CNS
OVCAR-8 ovarian = tested on: OVCAR-8 ovarian
MCF7 breast = tested on: MCF7 breast
HCC-2998 colon = tested on: HCC-2998 colon
ACHN renal = tested on: ACHN renal
OVCAR-5 ovarian = tested on: OVCAR-5 ovarian
SW-620 colon = tested on: SW-620 colon
SK-MEL-28 melanoma = tested on: SK-MEL-28 melanoma
KM12 colon = tested on: KM12 colon
RXF 393 renal = tested on: RXF 393 renal
K-562 leukemia = tested on: K-562 leukemia
SK-MEL-5 melanoma = tested on: SK-MEL-5 melanoma
DU-145 prostate = tested on: DU-145 prostate
COLO 205 colon = tested on: COLO 205 colon
PC-3 prostate = tested on: PC-3 prostate
NCI-H522 lung = tested on: NCI-H522 lung
SR leukemia = tested on: SR leukemia
T-47D breast = tested on: T-47D breast

SMILES: O=C1C=CC=C/C1=C1\N=C(c2ccccc2OCC(=O)c2ccccc2)SS1
- TGI (MDA-MB-231 breast): > 100 µM
- TGI (CAKI-1 renal): > 100 µM
- TGI (TK-10 renal): > 100 µM
- TGI (HCT-116 colon): > 100 µM
- TGI (IGROV1 ovarian): > 100 µM
- TGI (MALME-3M melanoma): > 100 µM
- TGI (HOP-92 NSCLC): > 100 µM
- TGI (UACC-62 melanoma): > 100 µM
- TGI (SK-OV-3 ovarian): > 100 µM
- TGI (UACC-257 melanoma): > 100 µM
- TGI (NCI-H226 lung): > 100 µM
- TGI (MDA-MB-435): > 100 µM
- TGI (BT-549 breast): > 100 µM
- TGI (EKVX NSCLC): > 100 µM
- TGI (MDA-N): > 100 µM
- TGI (NCI/ADR-RES ovarian): > 100 µM
- TGI (HCT-15 colon): > 100 µM
- TGI (OVCAR-3 ovarian): > 100 µM
- TGI (786-0 renal): > 100 µM
- TGI (UO-31 renal): > 100 µM
- TGI (SF-539 CNS): > 100 µM
- TGI (SF-268 CNS): > 100 µM
- TGI (MOLT-4 leukemia): 47.2 µM
- TGI (A498 renal): > 100 µM
- TGI (U251 CNS): > 100 µM
- TGI (HS 578T breast): > 100 µM
- TGI (SF-295 CNS): > 100 µM
- TGI (NCI-H460 lung): > 100 µM
- TGI (M14 melanoma): > 100 µM
- TGI (RPMI-8226 leukemia): > 100 µM
- TGI (HOP-62 NSCLC): > 100 µM
- TGI (HT29 colon): > 100 µM
- TGI (SK-MEL-2 melanoma): > 100 µM
- TGI (A549 NSCLC): > 100 µM
- TGI (OVCAR-4 ovarian): > 100 µM
- TGI (HL-60(TB) leukemia): > 100 µM
- TGI (SNB-19 CNS): > 100 µM
- TGI (SN12C renal): > 100 µM
- TGI (LOX IMVI melanoma): > 100 µM
- TGI (NCI-H23 lung): > 100 µM
- TGI (CCRF-CEM leukemia): > 100 µM
- TGI (SNB-75 CNS): 65.8 µM
- TGI (OVCAR-8 ovarian): > 100 µM
- TGI (MCF7 breast): > 100 µM
- TGI (HCC-2998 colon): > 100 µM
- TGI (ACHN renal): > 100 µM
- TGI (OVCAR-5 ovarian): > 100 µM
- TGI (SW-620 colon): > 100 µM
- TGI (SK-MEL-28 melanoma): > 100 µM
- TGI (KM12 colon): > 100 µM
- TGI (RXF 393 renal): > 100 µM
- TGI (K-562 leukemia): > 100 µM

SMILES: O=S(=O)(c1cc(Cl)ccc1Cl)n1ccnc1
- TGI (SK-MEL-5 melanoma): 53.9 µM
- TGI (MDA-MB-231 breast): 51.2 µM
- TGI (CAKI-1 renal): > 100 µM
- TGI (TK-10 renal): > 100 µM
- TGI (HCT-116 colon): > 100 µM
- TGI (IGROV1 ovarian): > 100 µM
- TGI (DU-145 prostate): > 100 µM
- TGI (MALME-3M melanoma): > 100 µM
- TGI (HOP-92 NSCLC): > 100 µM
- TGI (UACC-62 melanoma): > 100 µM
- TGI (SK-OV-3 ovarian): > 100 µM
- TGI (UACC-257 melanoma): > 100 µM
- TGI (NCI-H226 lung): 52.8 µM
- TGI (MDA-MB-435): 37 µM
- TGI (BT-549 breast): > 100 µM
- TGI (EKVX NSCLC): > 100 µM
- TGI (NCI/ADR-RES ovarian): 45.7 µM
- TGI (HCT-15 colon): 89.5 µM
- TGI (OVCAR-3 ovarian): > 100 µM
- TGI (786-0 renal): > 100 µM
- TGI (UO-31 renal): > 100 µM
- TGI (SF-539 CNS): 39.3 µM
- TGI (COLO 205 colon): 34.1 µM
- TGI (SF-268 CNS): > 100 µM
- TGI (MOLT-4 leukemia): > 100 µM
- TGI (A498 renal): 95 µM
- TGI (U251 CNS): > 100 µM
- TGI (PC-3 prostate): > 100 µM
- TGI (NCI-H522 lung): > 100 µM
- TGI (HS 578T breast): > 100 µM
- TGI (SR leukemia): 70.9 µM
- TGI (SF-295 CNS): > 100 µM
- TGI (NCI-H460 lung): > 100 µM
- TGI (M14 melanoma): > 100 µM
- TGI (RPMI-8226 leukemia): 91.6 µM
- TGI (HOP-62 NSCLC): > 100 µM
- TGI (HT29 colon): > 100 µM
- TGI (SK-MEL-2 melanoma): > 100 µM
- TGI (A549 NSCLC): > 100 µM
- TGI (OVCAR-4 ovarian): > 100 µM
- TGI (HL-60(TB) leukemia): 88 µM
- TGI (SNB-19 CNS): > 100 µM
- TGI (SN12C renal): 84.4 µM
- TGI (LOX IMVI melanoma): > 100 µM
- TGI (NCI-H23 lung): 52.8 µM
- TGI (CCRF-CEM leukemia): > 100 µM
- TGI (SNB-75 CNS): > 100 µM
- TGI (OVCAR-8 ovarian): > 100 µM
- TGI (MCF7 breast): > 100 µM
- TGI (HCC-2998 colon): 42.4 µM
- TGI (ACHN renal): > 100 µM
- TGI (OVCAR-5 ovarian): > 100 µM
- TGI (SW-620 colon): > 100 µM
- TGI (SK-MEL-28 melanoma): > 100 µM
- TGI (T-47D breast): > 100 µM
- TGI (KM12 colon): > 100 µM
- TGI (RXF 393 renal): 74.1 µM
- TGI (K-562 leukemia): > 100 µM
